Assay results reported in PMC6561105 (Journal of medicinal chemistry, 2019).
Counter-ions that a name gives are not always drawn. Marks after values point to notes of the source that are not given here.

Tests used:
MigA9 and/or HT-29 cells = experiment: Cellular distribution by fluorescence microscopy; format: cell-based; conditions: intrinsic fluorescence; MigA9 20 μM 2h and/or HT-29 5μM 16H
[1] = tested on: HOXA9/DNA binding (HBS, HOXA9-binding site); parameters: species or system human; conditions: ELISA-derived assay and EMSA, Figure 1; SAR discussion
HMG-box protein = HMG-box protein DNA binding; conditions: specificity control
[2] = tested on: HOXA9 binding site 5′-ATTTA; experiment: DNase I footprinting
MigA9 cells [3] = experiment: Cell cycle and sub-G1 analysis; format: cell-based, murine
K562 cells = experiment: Colony-forming assay K562; format: cell-based, human; conditions: 2.5μM, 10 days, 1000 cells/well, mean +/− s.e.m
[4] = tested on: HOXA9-mediated transactivation; experiment: HOXA9-driven luciferase assay; format: cell-based, human; conditions: K562 transfected with pCMV-AD-HOXA9 and wild-type HBS reporter, 20μM, 48H
MigA9 cells [5] = conditions: 2.5μM, 10 days; for MigA9 Number of colonies, Total: 1000 cells/well
[6] = tested on: Itgam, Oasl2, Akap13, Arfgef1 expression in MigA9 cells; experiment: qRT-PCR of differentiation-associated genes; format: cell-based, murine; conditions: MigA9, 5 or 10μM, 48 hours
HBS DNA sequence = experiment: Circular dichroism on HBS oligonucleotide; format: binding; conditions: 300-400 nm, increasing drug/DNA ratio
HOXA9/HBS complex = format: binding, human; conditions: from EMSA quantification

**Q.** Which “entry into cells and localization in the nucleus” value (MigA9 and/or HT-29 cells) does the source give for N=C(N)c1ccc(-c2cccc(-c3nc4ccc(C(=N)N)cc4[nH]3)c2)cc1 [DB911] here?
**A.** could not be detected

**Q.** How did the “HOXA9/DNA binding inhibition (in words)” value [1] turn out when N=C(N)c1ccc(-c2ccc(-c3ccc(C(=N)N)cc3)s2)cc1 [DB351] was run?
**A.** inactive

**Q.** With N=C(N)c1cccc(-c2ccc(-c3nc4cc(C(=N)N)ccc4[nH]3)cc2)c1 [DB1055] as the molecule, how does the “inhibition of DNA binding of the HMG-box protein” value (HMG-box protein) read?
**A.** failed to inhibit

**Q.** And the “recognition of 5′-ATTTA site in DNase I footprinting” value (from here on “recognition of 5′-ATTTA site”) [2]?
**A.** protected site was clearly evidenced

**Q.** And the “% SubG1 48H” value (MigA9 cells [3]; MigA9, 15 μM)?
**A.** 1.27 +/− 0.20%

**Q.** What about the “K562 Number of colonies, Total” value (K562 cells) of the same molecule?
**A.** 467 +/− 12

**Q.** And the “inhibition of HOXA9-mediated transactivation (luciferase)” value [4]?
**A.** able to inhibit

**Q.** And the “MigA9 Number of colonies, BFU-E” value (MigA9 cells [5])?
**A.** 2

**Q.** And the “MigA9 Number of colonies, CFU-G” value (MigA9 cells [5])?
**A.** 58

**Q.** And the “MigA9 Number of colonies, CFU-M” value (MigA9 cells [5])?
**A.** 55

**Q.** And the “MigA9 Number of colonies, Total” value (MigA9 cells [5])?
**A.** 115

**Q.** And the “MigA9 colonies, CFU-GM (%)” value (MigA9 cells [5]; share of total colonies)?
**A.** 0 (0%)

**Q.** What about the “MigA9 colonies, Total (%)” value (MigA9 cells [5]; share of total colonies) of the same molecule?
**A.** 100%

**Q.** N=C(N)c1ccc(-c2ccc(-c3nc4ccc(C(=N)N)cc4[nH]3)s2)cc1 [DB818] was tested. Which “inhibition of DNA binding of the HMG-box protein” value (HMG-box protein) did it give?
**A.** failed to inhibit

**Q.** And the “recognition of 5′-ATTTA site” value [2]?
**A.** protected site was clearly evidenced

**Q.** What about the “K562 Number of colonies, Total” value (K562 cells) of the same molecule?
**A.** 448 +/− 17

**Q.** What about the “inhibition of HOXA9-mediated transactivation (luciferase)” value [4] of the same molecule?
**A.** able to inhibit

**Q.** And the “over-expression of Itgam, Oasl2, Akap13 and Arfgef1” value [6]?
**A.** over-expression

**Q.** What about the “MigA9 Number of colonies, Total” value (MigA9 cells [5]) of the same molecule?
**A.** 101

**Q.** What about the “MigA9 colonies, BFU-E (%)” value (MigA9 cells [5]; share of total colonies) of the same molecule?
**A.** 3 (3%)

**Q.** What about the “MigA9 colonies, Total (%)” value (MigA9 cells [5]; share of total colonies) of the same molecule?
**A.** 100%

**Q.** What does the source list for N=C(N)c1ccc(-c2ccc(-c3nc4cc(C(=N)N)ccc4o3)o2)cc1 [DB828]?
**A.** induced CD signal (HBS DNA sequence): only weak CD changes; recognition of 5′-ATTTA site in DNase I footprinting [2]: failed to recognize; inhibition of HOXA9-mediated transactivation (luciferase) [4]: failed; entry into cells and localization in the nucleus (MigA9 and/or HT-29 cells): localized to the nucleus; over-expression of Itgam, Oasl2, Akap13 and Arfgef1 [6]: failed to achieve the similar results; MigA9 Number of colonies, BFU-E (MigA9 cells [5]): 2; MigA9 Number of colonies, CFU-GM (MigA9 cells [5]): 90; MigA9 Number of colonies, CFU-M (MigA9 cells [5]): 16; MigA9 Number of colonies, Total (MigA9 cells [5]): 170; MigA9 colonies, Total (%) (MigA9 cells [5]; share of total colonies): 100%

**Q.** How did the “sub-group for HOXA9/DNA binding inhibition” value (HOXA9/HBS complex) turn out when N=C(N)c1ccc(-c2ccc(-c3ccc4ccc(C(=N)N)cc4c3)cc2)cc1 [DB1177] was run?
**A.** Medium

**Q.** And the “recognition of 5′-ATTTA site” value [2]?
**A.** much weaker binding activity

**Q.** Which “recognition of 5′-ATTTA site” value [2] does the source give for N=C(N)c1ccc(-c2ccc(-c3cc4ccc(C(=N)N)cc4[nH]3)s2)cc1 [DB1879, 2-(5-(4-Carbamimidoylphenyl)thiophen-2-yl)-1H-indole-6-carboximidamide diydrochloride] here?
**A.** protected site was clearly evidenced

**Q.** How did the “recognition of 5′-ATTTA site” value [2] turn out when N=C(N)c1ccc(-c2ccc(-c3cc4ccc(C(=N)N)cc4[nH]3)s2)nc1 [DB2529, 2-(5-(5-Carbamimidoylpyridin-2-yl)thiophen-2-yl)-1H-indole-6-carboximidamide trihydrochloride] was run?
**A.** protected site was clearly evidenced

**Q.** For N=C(N)c1ccc(-c2ccc(-c3cc4ccc(C(=N)N)cc4[nH]3)o2)cc1 [DB1878], which “recognition of 5′-ATTTA site” value [2] is on record?
**A.** much weaker binding activity

**Q.** What about the “% SubG1 48H” value (MigA9 cells [3]; MigA9, 10 μM) of the same molecule?
**A.** 15.94 +/− 1.80 ^$ %

**Q.** And the “% SubG1 48H” value (MigA9 cells [3]; MigA9, 15 μM)?
**A.** 27.88 +/− 16.14 * %

**Q.** N=C(Nc1ccc(-c2ccc(-c3ccc(NC(=N)c4ccccn4)cc3)[nH]2)cc1)c1ccccn1 [DB883] was tested. Which “recognition of 5′-ATTTA site” value [2] did it give?
**A.** failed to recognize
